Key:
Assay in all cases: BIO3-BIO1 mutant enzyme activity in the presence of herbicide, percentage inhibition (fluorometric DAPA assay)
Format in all cases: biochemical
Conditions in all cases: read-out: percentage inhibition
[1] = target: T1, Arabidopsis thaliana BIO3-BIO1 (BioDA) mutants (Arabidopsis thaliana, UniProt B0F481, P529A)
T1 construct: with the predicted N-terminal mitochondrial transit peptide removed; 6xHis-tag (N); thrombin cleavage site (N); made in house; host or cells: E. coli BL21 (DE3) bioA
Outline: (§1)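 His-tagged Arabidopsis BIO3-BIO1 mutants, expressed in E. coli and purified by IMAC and SEC, were preincubated at 50 nM with herbicide for 10 min at 20 °C in EPPS pH 8.6 with pyridoxal phosphate. Reaction with 100 μM spermidine and 20 μM KAPA ran 75 min at 20 °C; DAPA was derivatised with o-phthalaldehyde and read at ex 410/em 470 nm. […].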

[2] = target: T2, Arabidopsis thaliana BIO3-BIO1 (BioDA) mutants (Arabidopsis thaliana, UniProt B0F481, F348K)
T2 construct: with the predicted N-terminal mitochondrial transit peptide removed; 6xHis-tag (N); thrombin cleavage site (N); made in house; host or cells: E. coli BL21 (DE3) bioA
Outline: as §1

[3] = target: T3, Arabidopsis thaliana BIO3-BIO1 (BioDA) mutants (Arabidopsis thaliana, UniProt B0F481, A609R)
T3 construct: with the predicted N-terminal mitochondrial transit peptide removed; 6xHis-tag (N); thrombin cleavage site (N); made in house; host or cells: E. coli BL21 (DE3) bioA
Outline: as §1

[4] = target: T4, Arabidopsis thaliana BIO3-BIO1 (BioDA) mutants (Arabidopsis thaliana, UniProt B0F481, F348E)
T4 construct: with the predicted N-terminal mitochondrial transit peptide removed; 6xHis-tag (N); thrombin cleavage site (N); made in house; host or cells: E. coli BL21 (DE3) bioA
Outline: as §1

[5] = target: T5, Arabidopsis thaliana BIO3-BIO1 (BioDA) mutants (Arabidopsis thaliana, UniProt B0F481, S509N)
T5 construct: with the predicted N-terminal mitochondrial transit peptide removed; 6xHis-tag (N); thrombin cleavage site (N); made in house; host or cells: E. coli BL21 (DE3) bioA
Outline: as §1

[6] = target: T6, Arabidopsis thaliana BIO3-BIO1 (BioDA) mutants (Arabidopsis thaliana, UniProt B0F481, P421E)
T6 construct: with the predicted N-terminal mitochondrial transit peptide removed; 6xHis-tag (N); thrombin cleavage site (N); made in house; host or cells: E. coli BL21 (DE3) bioA
Outline: as §1

[7] = target: T7, Arabidopsis thaliana BIO3-BIO1 (BioDA) mutants (Arabidopsis thaliana, UniProt B0F481, F348N)
T7 construct: with the predicted N-terminal mitochondrial transit peptide removed; 6xHis-tag (N); thrombin cleavage site (N); made in house; host or cells: E. coli BL21 (DE3) bioA
Outline: as §1

[8] = target: T8, Arabidopsis thaliana BIO3-BIO1 (BioDA) mutants (Arabidopsis thaliana, UniProt B0F481, G513L)
T8 construct: with the predicted N-terminal mitochondrial transit peptide removed; 6xHis-tag (N); thrombin cleavage site (N); made in house; host or cells: E. coli BL21 (DE3) bioA
Outline: as §1

[9] = target: T9, Arabidopsis thaliana BIO3-BIO1 (BioDA) mutants (Arabidopsis thaliana, UniProt B0F481, Y511E)
T9 construct: with the predicted N-terminal mitochondrial transit peptide removed; 6xHis-tag (N); thrombin cleavage site (N); made in house; host or cells: E. coli BL21 (DE3) bioA
Outline: as §1

[10] = target: T10, Arabidopsis thaliana BIO3-BIO1 (BioDA) mutants (Arabidopsis thaliana, UniProt B0F481, W391L)
T10 construct: with the predicted N-terminal mitochondrial transit peptide removed; 6xHis-tag (N); thrombin cleavage site (N); made in house; host or cells: E. coli BL21 (DE3) bioA
Outline: as §1

[11] = target: T11, Arabidopsis thaliana BIO3-BIO1 (BioDA) mutants (Arabidopsis thaliana, UniProt B0F481, T512D)
T11 construct: with the predicted N-terminal mitochondrial transit peptide removed; 6xHis-tag (N); thrombin cleavage site (N); made in house; host or cells: E. coli BL21 (DE3) bioA
Outline: as §1

[12] = target: T12, Arabidopsis thaliana BIO3-BIO1 (BioDA) mutants (Arabidopsis thaliana, UniProt B0F481, S509A)
T12 construct: with the predicted N-terminal mitochondrial transit peptide removed; 6xHis-tag (N); thrombin cleavage site (N); made in house; host or cells: E. coli BL21 (DE3) bioA
Outline: as §1

T1 sequence (B0F481 23-833 P529A): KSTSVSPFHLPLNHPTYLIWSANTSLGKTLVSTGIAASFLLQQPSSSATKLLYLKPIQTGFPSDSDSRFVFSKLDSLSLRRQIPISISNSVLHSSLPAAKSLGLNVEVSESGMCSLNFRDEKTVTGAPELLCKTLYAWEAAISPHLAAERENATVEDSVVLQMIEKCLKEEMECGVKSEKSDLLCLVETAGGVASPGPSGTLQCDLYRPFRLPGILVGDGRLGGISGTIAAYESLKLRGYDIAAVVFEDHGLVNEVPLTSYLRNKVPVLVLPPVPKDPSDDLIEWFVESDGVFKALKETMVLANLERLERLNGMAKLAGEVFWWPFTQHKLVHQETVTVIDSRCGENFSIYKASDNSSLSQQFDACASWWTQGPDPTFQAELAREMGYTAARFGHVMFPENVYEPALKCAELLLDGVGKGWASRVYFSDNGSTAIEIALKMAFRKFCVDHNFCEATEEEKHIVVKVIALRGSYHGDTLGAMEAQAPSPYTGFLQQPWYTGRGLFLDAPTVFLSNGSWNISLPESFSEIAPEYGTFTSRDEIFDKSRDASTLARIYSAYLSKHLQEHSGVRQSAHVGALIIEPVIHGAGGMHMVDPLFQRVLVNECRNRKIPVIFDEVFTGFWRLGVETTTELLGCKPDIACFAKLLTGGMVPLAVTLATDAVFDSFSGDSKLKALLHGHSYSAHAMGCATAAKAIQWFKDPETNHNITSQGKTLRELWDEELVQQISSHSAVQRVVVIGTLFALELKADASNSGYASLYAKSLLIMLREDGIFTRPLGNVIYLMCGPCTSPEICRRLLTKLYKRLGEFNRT
T12 sequence (B0F481 23-833 S509A): as the sequence (B0F481 23-833 P529A) above, with S487A, A507P counted along it
T6 sequence (B0F481 23-833 P421E): as the sequence (B0F481 23-833 P529A) above, with P399E, A507P counted along it
T9 sequence (B0F481 23-833 Y511E): as the sequence (B0F481 23-833 P529A) above, with Y489E, A507P counted along it
T7 sequence (B0F481 23-833 F348N): as the sequence (B0F481 23-833 P529A) above, with F326N, A507P counted along it
T3 sequence (B0F481 23-833 A609R): as the sequence (B0F481 23-833 P529A) above, with A507P, A587R counted along it
T10 sequence (B0F481 23-833 W391L): as the sequence (B0F481 23-833 P529A) above, with W369L, A507P counted along it
T8 sequence (B0F481 23-833 G513L): as the sequence (B0F481 23-833 P529A) above, with G491L, A507P counted along it
T5 sequence (B0F481 23-833 S509N): as the sequence (B0F481 23-833 P529A) above, with S487N, A507P counted along it
T2 sequence (B0F481 23-833 F348K): as the sequence (B0F481 23-833 P529A) above, with F326K, A507P counted along it
T11 sequence (B0F481 23-833 T512D): as the sequence (B0F481 23-833 P529A) above, with T490D, A507P counted along it
T4 sequence (B0F481 23-833 F348E): as the sequence (B0F481 23-833 P529A) above, with F326E, A507P counted along it

SMILES: CCOC(=O)c1nn(-c2ccc3c(c2)OC(F)(F)C(F)(F)O3)c2cccc(C(C)=O)c2c1=O [Compound A, ethyl 5-acetyl-4-oxo-1-(2,2,3,3-tetrafluoro-1,4-benzodioxin-6-yl)cinnoline-3-carboxylate]
- inhibition at 1 µM [1]: 0%
- inhibition at 1 µM [2]: 11%
- inhibition at 1 µM [3]: 54%
- inhibition at 1 µM [4]: 0%
- inhibition at 1 µM [5]: 43%
- inhibition at 1 µM [6]: 0%
- inhibition at 1 µM [7]: 2%
- inhibition at 1 µM [8]: 89%
- inhibition at 1 µM [9]: 0%
- inhibition at 1 µM [10]: 62%
- inhibition at 1 µM [11]: 33%
- inhibition at 1 µM [12]: 0%

SMILES: CCn1c(-c2ccc(Cl)c(Cl)c2)c(C(=O)O)c(=O)c2cc(F)ccc21 [Compound M, 2-(3,4-dichlorophenyl)-1-ethyl-6-fluoro-4-oxo-quinoline-3-carboxylic acid]
- inhibition at 0.2 µM [1]: 0%
- inhibition at 1 µM [1]: 25%
- inhibition at 5 µM [1]: 68%
- inhibition at 0.2 µM [2]: 0%
- inhibition at 1 µM [2]: 1%
- inhibition at 5 µM [2]: 24%
- inhibition at 0.2 µM [3]: 52%
- inhibition at 1 µM [3]: 53%
- inhibition at 5 µM [3]: 88%
- inhibition at 0.2 µM [4]: 27%
- inhibition at 1 µM [4]: 25%
- inhibition at 5 µM [4]: 66%
- inhibition at 0.2 µM [5]: 6%
- inhibition at 1 µM [5]: 39%
- inhibition at 5 µM [5]: 78%
- inhibition at 0.2 µM [6]: 0%
- inhibition at 1 µM [6]: 47%
- inhibition at 5 µM [6]: 62%
- inhibition at 0.2 µM [7]: 0%
- inhibition at 1 µM [7]: 1%
- inhibition at 5 µM [7]: 15%
- inhibition at 0.2 µM [8]: 54%
- inhibition at 1 µM [8]: 85%
- inhibition at 5 µM [8]: 97%
- inhibition at 0.2 µM [9]: 29%
- inhibition at 1 µM [9]: 74%
- inhibition at 5 µM [9]: 95%
- inhibition at 0.2 µM [10]: 18%
- inhibition at 1 µM [10]: 16%
- inhibition at 5 µM [10]: 43%
- inhibition at 0.2 µM [11]: 59%
- inhibition at 1 µM [11]: 86%
- inhibition at 5 µM [11]: 96%
- inhibition at 0.2 µM [12]: 0%
- inhibition at 1 µM [12]: 33%
- inhibition at 5 µM [12]: 81%

SMILES: CCn1c(Cn2ccc(C(F)(F)F)n2)cc(=O)c(C(=O)O)c1-c1ccc(Cl)c(Cl)c1 [Compound L, 2-(3,4-dichlorophenyl)-1-ethyl-4-oxo-6-[[3-(trifluoromethyl)pyrazol-1-yl]methyl]pyridine-3-carboxylic acid]
- inhibition at 0.01 µM [1]: 0%
- inhibition at 0.075 µM [1]: 0%
- inhibition at 0.5 µM [1]: 60%
- inhibition at 0.01 µM [2]: 0%
- inhibition at 0.075 µM [2]: 2%
- inhibition at 0.5 µM [2]: 22%
- inhibition at 0.01 µM [3]: 0%
- inhibition at 0.075 µM [3]: 51%
- inhibition at 0.5 µM [3]: 65%
- inhibition at 0.01 µM [4]: 0%
- inhibition at 0.075 µM [4]: 0%
- inhibition at 0.5 µM [4]: 32%
- inhibition at 0.01 µM [6]: 0%
- inhibition at 0.075 µM [6]: 0%
- inhibition at 0.5 µM [6]: 41%
- inhibition at 0.01 µM [7]: 0%
- inhibition at 0.075 µM [7]: 0%
- inhibition at 0.5 µM [7]: 21%
- inhibition at 0.01 µM [8]: 58%
- inhibition at 0.075 µM [8]: 88%
- inhibition at 0.5 µM [8]: 97%

SMILES: CCn1c(C)c(-c2ccc(F)cc2F)c(=O)c(C(=O)O)c1-c1ccc(Cl)c(Cl)c1 [Compound C, 2-(3,4-dichlorophenyl)-5-(2,4-difluorophenyl)-1-ethyl-6-methyl-4-oxo-pyridine-3-carboxylic acid]
- inhibition at 0.2 µM [1]: 4%
- inhibition at 1 µM [1]: 25%
- inhibition at 5 µM [1]: 71%
- inhibition at 0.2 µM [2]: 0%
- inhibition at 1 µM [2]: 11%
- inhibition at 5 µM [2]: 15%
- inhibition at 0.2 µM [3]: 63%
- inhibition at 1 µM [3]: 68%
- inhibition at 5 µM [3]: 71%
- inhibition at 0.2 µM [4]: 19%
- inhibition at 1 µM [4]: 57%
- inhibition at 5 µM [4]: 86%
- inhibition at 0.2 µM [5]: 16%
- inhibition at 1 µM [5]: 50%
- inhibition at 5 µM [5]: 86%
- inhibition at 0.2 µM [6]: 37%
- inhibition at 1 µM [6]: 31%
- inhibition at 5 µM [6]: 0%
- inhibition at 0.2 µM [7]: 0%
- inhibition at 1 µM [7]: 2%
- inhibition at 5 µM [7]: 17%
- inhibition at 0.2 µM [8]: 69%
- inhibition at 1 µM [8]: 92%
- inhibition at 5 µM [8]: 98%
- inhibition at 0.2 µM [9]: 27%
- inhibition at 1 µM [9]: 74%
- inhibition at 5 µM [9]: 96%
- inhibition at 0.2 µM [10]: 23%
- inhibition at 1 µM [10]: 29%
- inhibition at 5 µM [10]: 33%
- inhibition at 0.2 µM [11]: 79%
- inhibition at 1 µM [11]: 95%
- inhibition at 5 µM [11]: 97%
- inhibition at 0.2 µM [12]: 0%
- inhibition at 1 µM [12]: 63%
- inhibition at 5 µM [12]: 95%

Source: US20260226493A1, “HERBICIDE RESISTANT PLANTS” (SYNGENTA CROP PROTECTION AG, priority 2023, published 2026)
